Test system: HEK293 cells
Assay: Preliminary screening as mRNA vectors, EGFP mRNA transfection of HEK293 cells
Assay type: cell-based
Conditions: EGFP mRNA 50 ng per well, 96-well plates; percentage of GFP fluorescent cells relative to total number of cells (Hoechst)
In short: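 Screening format: EGFP mRNA transfection (50 ng/well) into HEK293 in 10% FBS-supplemented DMEM. Percent green fluorescent cells, normalised to Hoechst nuclear count, gave the value; Lipofectamine2000 was the reference transfectant.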

Structure (SMILES)	Absolute mRNA transfection efficiency in HEK293 cells [%]
CCCCCCCCCCCCNc1nc(NCCN2CCN(C)CC2)nc(SCCCCCCCCC)n1 [Compound D5S9N12]	24.6
CCCCCCCCCCCCCCSc1nc(NCCN2CCOCC2)nc(N(CCCCCCCCCCCC)CCCCCCCCCCCC)n1 [D2S14^2N12]	0.0
CCCCCCCCCNc1nc(NCCN2CCOCC2)nc(SCCCCCCCC)n1 [Compound D2S8N9]	8.3
CCCCCCCCCCCCCCCCNc1nc(NCCN2CCN(C)CC2)nc(SCCCCCCCC)n1 [Compound D5S8N16]	32.3
CCCCCCCCCCCCNc1nc(NCCN2CCCC2)nc(SCCCCCCCCC)n1 [Compound D3S9N12]	49.6
CCCCCCCCCCCCSc1nc(NCCCN2CCOCC2)nc(SCCCCCC)n1 [Compound D8S6S12]	11.1
CCCCCCCCCCCCSc1nc(NCCCCCCC)nc(NCCN(C)C)n1 [Compound D1S12N7]	1.5
CCCCCCCCCCCCCCCSc1nc(NCCN2CCOCC2)nc(SCCCCCC)n1 [Compound D2S6S15]	6.9
CCCCCCCNc1nc(NCCN(CC)CC)nc(SCCCCCC)n1 [Compound D7S6N7]	0.0
CCCCCCCCCCCCCCCCCCNc1nc(NCC2CCN(C)CC2)nc(SCCCCCC)n1 [Compound D10S6N18]	41.4
CCCCCCCNc1nc(NCCCN2CCOCC2)nc(SCCCCCC)n1 [Compound D8S6N7]	0.4
CCCCCCCCCCCCCCCNc1nc(NCCN2CCOCC2)nc(SCCCCCCCCCCCCCC)n1 [Compound D2S14N15]	0.0
CCCCCCCCCCCCCCSc1nc(NCCCCCCCCCCCC)nc(NCCN(C)C)n1 [Compound D1S14N12]	9.6
CCCCCCCCCCCCCCCCSc1nc(NCCCN2CCN(C)CC2)nc(N(CCCCCCCCCCCC)CCCCCCCCCCCC)n1 [D9S16^2N12]	2.7
CCCCCCCCCCSc1nc(NCCCCCCCCC)nc(NCCN(CC)CC)n1 [Compound D7S10N9]	1.6
CCCCCCCCCCCCCCSc1nc(NCCCCCCCCC)nc(NCCN(CC)CC)n1 [Compound D7S14N9]	29.8
CCCCCCCCCCCCN(CCCCCCCCCCCC)c1nc(NCCN(C)C)nc(SCCCCCC)n1 [D1S6^2N12]	0.7
CCCCCCCCCCCCNc1nc(NCCN(CC)CC)nc(SCCCCCCC)n1 [Compound D7S7N12]	3.6
CCCCCCCCCCCSc1nc(NCCCCCCCC)nc(NCCN2CCCC2)n1 [Compound D3S11N8]	31.8
CCCCCCCCCCCCCCCCNc1nc(NCCCN2CCOCC2)nc(SCCCCCCCCCCCC)n1 [Compound D8S12N16]	0.7
CCCCCCCCCCCCCNc1nc(NCCN2CCN(C)CC2)nc(SCCCCCC)n1 [Compound D5S6N13]	7.2
CCCCCCCCCCCCCCCCNc1nc(NCC2CCN(C)CC2)nc(SCCCCCCCCCCC)n1 [Compound D10S11N16]	10.4
CCCCCCCSc1nc(NCCCCCC)nc(NCCN2CCN(C)CC2)n1 [Compound D5S7N6]	1.9

Structure (SMILES)	Absolute mRNA transfection efficiency in HEK293 cells [%]
CCCCCCCCCCCCCCCCCCSc1nc(NCCCCCCCCCCCCCCCC)nc(NCCN2CCOCC2)n1 [Compound D2S18N16]	0.0
CCCCCCCCCCCCN(CCCCCCCCCCCC)c1nc(NCCCN(C)C)nc(SCCCCCCCCC)n1 [D6S9^2N12]	1.7
CCCCCCCCCCCCCCCSc1nc(NCCCCCCC)nc(NCCCN2CCOCC2)n1 [Compound D8S15N7]	2.2
CCCCCCCCCCCCCCCCNc1nc(NCCN2CCCCC2)nc(SCCCCCCCCCCCCCCCC)n1 [Compound D4S16N16]	3.6
CCCCCCCCCCCSc1nc(NCCCCCCCCC)nc(NCCCN(C)C)n1 [Compound D6S11N9]	45.1
CCCCCCCCCCCCCCCCCCNc1nc(NCCCN2CCN(C)CC2)nc(SCCCCCCCCCCCCCCCC)n1 [Compound D9S16N18]	0.1
CCCCCCCCCCCNc1nc(NCCN2CCCC2)nc(SCCCCCCCCCCC)n1 [Compound D3S11N11]	33.5
CCCCCCCSc1nc(NCCN(C)C)nc(SCCCCCCC)n1 [Compound D1S7S7]	14.9
CCCCCCCCCCCCN(CCCCCCCCCCCC)c1nc(NCCN2CCN(C)CC2)nc(SCCCCCCCC)n1 [D5S8^2N12]	0.9
CCCCCCCCCCCCCCCSc1nc(NCCCCCCCC)nc(NCCCN(C)C)n1 [Compound D6S15N8]	6.9
CCCCCCCCCCCCCCCNc1nc(NCCCN2CCOCC2)nc(SCCCCCC)n1 [Compound D8S6N15]	0.1
CCCCCCCCCCCCCCCNc1nc(NCCCN2CCOCC2)nc(SCCCCCCC)n1 [Compound D8S7N15]	2.8
CCCCCCCCCSc1nc(NCCN2CCN(C)CC2)nc(SCCCCCCCC)n1 [Compound D5S8S9]	36.1
CCCCCCCCCCCCCCCNc1nc(NCCN(C)C)nc(SCCCCCCCCCCC)n1 [Compound D1S11N15]	6.2
CCCCCCCCCCCCCCCCSc1nc(NCCCCCCCCCCCCCCC)nc(NCCN2CCCCC2)n1 [Compound D4S16N15]	0.1
CCCCCCCCCCCCCNc1nc(NCCN2CCN(C)CC2)nc(SCCCCCCCC)n1 [Compound D5S8N13]	44.2
CCCCCCCCCCCCCCCCNc1nc(NCCN(CC)CC)nc(SCCCCCCCCCCCCCCCC)n1 [Compound D7S16N16]	1.6
CCCCCCCCSc1nc(NCCCCCCC)nc(NCCCN2CCN(C)CC2)n1 [Compound D9S8N7]	1.4
CCCCCCCCCSc1nc(NCCCN2CCOCC2)nc(SCCCCCC)n1 [Compound D8S6S9]	5.0
CCCCCCCCCCCCCCCSc1nc(NCC2CCN(C)CC2)nc(SCCCCCC)n1 [Compound D10S6S15]	40.0
CCCCCCCSc1nc(NCCCN2CCOCC2)nc(SCCCCCC)n1 [Compound D8S6S7]	1.5
CCCCCCCCCCCNc1nc(NCCN2CCOCC2)nc(SCCCCCCCCC)n1 [Compound D2S9N11]	44.8
CCCCCCCCCCCNc1nc(NCCN2CCCC2)nc(SCCCCCCCCC)n1 [Compound D3S9N11]	47.8

Structure (SMILES)	Absolute mRNA transfection efficiency in HEK293 cells [%]
CCCCCCCCCSc1nc(NCCCCCC)nc(NCCN2CCN(C)CC2)n1 [Compound D5S9N6]	2.9
CCCCCCCCCCCCN(CCCCCCCCCCCC)c1nc(NCCN(C)C)nc(SCCCCCCCC)n1 [D1S8^2N12]	0.4
CCCCCCCCCCCCCCCSc1nc(NCCCCCCC)nc(NCCN2CCN(C)CC2)n1 [Compound D5S15N7]	25.2
CCCCCCCSc1nc(NCCCCCC)nc(NCCN(C)C)n1 [Compound D1S7N6]	5.1
CCCCCCCCCCCCCCSc1nc(NCCCCCCCCCCC)nc(NCCN(CC)CC)n1 [Compound D7S14N11]	17.0
CCCCCCCCCCCCCCCCNc1nc(NCCN2CCOCC2)nc(SCCCCCCCCC)n1 [Compound D2S9N16]	1.4
CCCCCCCCCCCCN(CCCCCCCCCCCC)c1nc(NCCCN2CCOCC2)nc(SCCCCCC)n1 [D8S6^2N12]	0.0
CCCCCCCCCCCSc1nc(NCCCCCC)nc(NCCCN2CCOCC2)n1 [Compound D8S11N6]	2.8
CCCCCCCCCCCCCCCSc1nc(NCCN2CCCCC2)nc(SCCCCCC)n1 [Compound D4S6S15]	2.0
CCCCCCCNc1nc(NCCN(C)C)nc(SCCCCCCC)n1 [Compound D1S7N7]	4.4
CCCCCCCNc1nc(NCCN2CCCCC2)nc(SCCCCCC)n1 [Compound D4S6N7]	0.0
CCCCCCCCCCCCCCCCSc1nc(NCCCN(C)C)nc(SCCCCCCC)n1 [Compound D6S7S16]	90.8
CCCCCCCCCCCCCCCCNc1nc(NCCN(CC)CC)nc(SCCCCCCCCCCC)n1 [Compound D7S11N16]	4.4
CCCCCCCSc1nc(NCCN(C)C)nc(SCCCCCC)n1 [Compound D1S6S7]	1.0
CCCCCCCCCCCCCCCCSc1nc(NCCN2CCCCC2)nc(SCCCCCC)n1 [Compound D4S6S16]	5.1
CCCCCCCCCCCCCCSc1nc(NCCCCCCC)nc(NCCCN2CCOCC2)n1 [Compound D8S14N7]	3.1
CCCCCCCCCCCCCCCNc1nc(NCCN2CCN(C)CC2)nc(SCCCCCCCCCCCC)n1 [Compound D5S12N15]	0.8
CCCCCCCCCCCCCCCCSc1nc(NCCN(C)C)nc(SCCCCCCC)n1 [Compound D1S7S16]	6.9
CCCCCCCCNc1nc(NCCCN2CCOCC2)nc(SCCCCCC)n1 [Compound D8S6N8]	0.2
CCCCCCCCCCCCCCCCCCNc1nc(NCCCN2CCOCC2)nc(SCCCCCC)n1 [Compound D8S6N18]	0.7
CCCCCCCCCCCCCCCNc1nc(NCCN2CCCC2)nc(SCCCCCCCCCCCCCCC)n1 [Compound D3S15N15]	2.6
CCCCCCCSc1nc(NCCN(CC)CC)nc(SCCCCCC)n1 [Compound D7S6S7]	22.9

From patent US20230123334A1, “AMINO LIPID COMPOUND, PREPARATION METHOD THEREFOR, AND APPLICATION THEREOF” (SHENZHEN SHENXIN BIOTECHNOLOGY CO., LTD., priority 2020, published 2023)
